In ChEMBL document CHEMBL5352444, “Development of benzene and benzothiazole-sulfonamide analogues as selective inhibitors of the tumor-associated carbonic anhydrase IX” (Eur J Med Chem, 2022):

Columns and labels:
Carbonic anhydrase 4 = Carbonic anhydrase 4 (Homo sapiens, UniProt P22748); experiment: Inhibition of human carbonic anhydrase 4 assessed as inhibition constant preincubated for 15 mins and measured for 10 to 100 sec by phenol red dye based stopped flow CO2 hydration assay
Carbonic anhydrase 9 = Carbonic anhydrase 9 (Homo sapiens, UniProt Q16790); experiment: Inhibition of human carbonic anhydrase 9 assessed as inhibition constant incubated for 15 mins by phenol red dye based stopped flow CO2 hydration assay
Carbonic anhydrase 1 = Carbonic anhydrase 1 (Homo sapiens, UniProt P00915); experiment: Inhibition of human carbonic anhydrase 1 assessed as inhibition constant preincubated for 15 mins and measured for 10 to 100 sec by phenol red dye based stopped flow CO2 hydration assay
Sequence of Carbonic anhydrase 1 (P00915 whole entry): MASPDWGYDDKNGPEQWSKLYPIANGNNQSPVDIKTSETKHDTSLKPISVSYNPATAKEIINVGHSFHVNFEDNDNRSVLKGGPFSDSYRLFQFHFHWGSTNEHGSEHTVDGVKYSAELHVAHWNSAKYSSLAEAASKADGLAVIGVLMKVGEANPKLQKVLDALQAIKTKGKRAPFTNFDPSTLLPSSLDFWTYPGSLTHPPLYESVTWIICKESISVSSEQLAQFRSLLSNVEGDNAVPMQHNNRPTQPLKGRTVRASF

Carbonic anhydrase 2 = Carbonic anhydrase 2 (Homo sapiens, UniProt P00918); experiment: Inhibition of human carbonic anhydrase 2 assessed as inhibition constant preincubated for 15 mins and measured for 10 to 100 sec by phenol red dye based stopped flow CO2 hydration assay
[1] = Cytotoxicity against HGF cells assessed as increase in cell viability at 50 uM incubated for 48 hrs by MTT assay relative to doxorubicin; format: toxicity, cell-based; details: human
[2] = Cytotoxicity against HGF cells assessed as increase in cell viability at 10 uM incubated for 48 hrs by MTT assay relative to doxorubicin; format: toxicity, cell-based; details: human
[3] = Cytotoxicity against HGF cells assessed as increase in cell viability at 50 uM incubated for 72 hrs by MTT assay relative to control; format: toxicity, cell-based; details: human
[4] = Cytotoxicity against HGF cells assessed as cell viability at 50 uM incubated for 72 hrs by MTT assay relative to control; format: toxicity, cell-based; details: human, read-out: Activity
[5] = Cytotoxicity against HGF cells assessed as increase in cell viability at 10 uM incubated for 72 hrs by MTT assay relative to control; format: toxicity, cell-based; details: human
[6] = Cytotoxicity against HGF cells assessed as increase in cell viability at 10 uM incubated for 72 hrs by MTT assay relative to doxorubicin; format: toxicity, cell-based; details: human
[7] = Cytotoxicity against HGF cells assessed as increase in cell viability at 50 uM incubated for 48 hrs by MTT assay relative to control; format: toxicity, cell-based; details: human
[8] = Cytotoxicity against HGF cells assessed as increase in cell viability at 10 uM incubated for 48 hrs by MTT assay relative to control; format: toxicity, cell-based; details: human

Sequence of Carbonic anhydrase 4 (P22748 whole entry): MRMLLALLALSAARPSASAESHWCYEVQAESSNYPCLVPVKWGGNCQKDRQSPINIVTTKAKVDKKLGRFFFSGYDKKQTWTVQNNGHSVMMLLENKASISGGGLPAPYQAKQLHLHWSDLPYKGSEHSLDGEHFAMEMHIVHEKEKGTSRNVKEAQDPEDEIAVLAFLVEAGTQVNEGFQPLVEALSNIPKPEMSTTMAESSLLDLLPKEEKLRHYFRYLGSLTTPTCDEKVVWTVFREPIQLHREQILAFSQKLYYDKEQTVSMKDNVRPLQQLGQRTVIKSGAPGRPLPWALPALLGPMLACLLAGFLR

| SMILES | Ki (Carbonic anhydrase 4) | Ki (Carbonic anhydrase 9) | Ki (Carbonic anhydrase 1) | Ki (Carbonic anhydrase 2) | Activity [1] | Activity [2] | Activity [3] | viability at 72 h, 50 µM [4] | Activity [5] | Activity [6] | Activity [7] | Activity [8] |
| --- | --- | --- | --- | --- | --- | --- | --- | --- | --- | --- | --- | --- |
| CN1CCN(C(=S)SCC(=O)Nc2ccc(S(N)(=O)=O)cc2)CC1 | 420 nM | 255 nM |  |  |  |  |  |  |  |  |  |  |
| COc1ccccc1N1CCN(C(=S)SCC(=O)Nc2nc3ccc(S(N)(=O)=O)cc3s2)CC1 | 7260 nM | 30.3 nM | 5030 nM | 51.5 nM | Non-Toxic | Non-Toxic | Toxic | > 60% | Toxic | Non-Toxic |  |  |
| CCN1CCN(C(=S)SCC(=O)Nc2nc3ccc(S(N)(=O)=O)cc3s2)CC1 | 5930 nM | 28.8 nM | 56.1 nM | 2.5 nM |  |  |  |  |  |  |  |  |
| CN1CCN(C(=S)SCC(=O)Nc2nc3ccc(S(N)(=O)=O)cc3s2)CC1 | 5090 nM | 30.6 nM | 20.8 nM | 4.1 nM |  |  |  |  |  |  |  |  |
| NS(=O)(=O)c1ccc2nc(NC(=O)CSC(=S)N3CCN(Cc4ccccc4)CC3)sc2c1 | 5540 nM | 25.9 nM | 599 nM | 297 nM | Non-Toxic | Non-Toxic | Toxic | > 60% | Toxic | Non-Toxic |  |  |
| NS(=O)(=O)c1ccc(NC(=O)CSC(=S)N2CCOCC2)cc1 | 649 nM | 162 nM | 72.8 nM | 7.2 nM |  |  |  |  |  |  |  |  |
| NS(=O)(=O)c1ccc2nc(NC(=O)CSC(=S)N3CCN(c4ccccc4)CC3)sc2c1 | > 10000 nM | 115 nM | 4190 nM | 91.4 nM |  |  |  |  |  |  |  |  |
| CCN1CCN(C(=S)SCC(=O)Nc2ccc(S(N)(=O)=O)cc2)CC1 | 189 nM | 296 nM | 8.2 nM | 4.9 nM |  |  |  |  |  |  |  |  |
| CC(=O)Nc1nnc(S(N)(=O)=O)s1 [ACETAZOLAMIDE] |  |  |  |  | Non-Toxic | Non-Toxic | Toxic | > 60% |  | Non-Toxic |  |  |
| COc1cccc2c1C(=O)c1c(O)c3c(c(O)c1C2=O)C[C@@](O)(C(=O)CO)C[C@@H]3O[C@H]1C[C@H](N)[C@H](O)[C@H](C)O1 [DOXORUBICIN] |  |  |  |  |  |  | Toxic |  | Toxic |  | Toxic | Toxic |

Continued, in another order:

| Ki (Carbonic anhydrase 4) | Ki (Carbonic anhydrase 9) | Ki (Carbonic anhydrase 1) | Ki (Carbonic anhydrase 2) | SMILES | Activity [1] | Activity [2] | Activity [3] | viability at 72 h, 50 µM [4] | Activity [5] | Activity [6] | Activity [7] | Activity [8] |
| --- | --- | --- | --- | --- | --- | --- | --- | --- | --- | --- | --- | --- |
| 2310 nM | 1250 nM | 2010 nM | 371 nM | Cc1ccc(N2CCN(C(=S)SCC(=O)Nc3ccc(S(N)(=O)=O)cc3)CC2)cc1 |  |  |  |  |  |  |  |  |
| 1470 nM | 744 nM | 707 nM | 240 nM | NS(=O)(=O)c1ccc(NC(=O)CSC(=S)N2CCN(c3ccccc3)CC2)cc1 |  |  |  |  |  |  |  |  |
| 779 nM | 136 nM | 54.8 nM | 5.7 nM | CCOC(=O)N1CCN(C(=S)SCC(=O)Nc2ccc(S(N)(=O)=O)cc2)CC1 |  |  |  |  |  |  |  |  |
| 7640 nM | 157 nM | 9150 nM | 965 nM | NS(=O)(=O)c1ccc2nc(NC(=O)CSC(=S)N3CCN(C(c4ccccc4)c4ccccc4)CC3)sc2c1 |  |  |  |  |  |  |  |  |
| 8450 nM | 154 nM | 1810 nM | 441 nM | NS(=O)(=O)c1ccc(NC(=O)CSC(=S)N2CCN(C(c3ccccc3)c3ccccc3)CC2)cc1 |  |  |  |  |  |  |  |  |
| 7440 nM | 26.6 nM | 85.6 nM | 3.8 nM | NS(=O)(=O)c1ccc2nc(NC(=O)CSC(=S)N3CCCCC3)sc2c1 |  |  |  |  |  |  |  |  |
| 3400 nM | 31.6 nM | 84.1 nM | 17.4 nM | NS(=O)(=O)c1ccc(NC(=O)CSC(=S)N2CCN(Cc3ccccc3)CC2)cc1 |  |  |  |  |  |  |  |  |
| > 10000 nM | 22.1 nM | 7570 nM | 50.3 nM | CCOC(=O)N1CCN(C(=S)SCC(=O)Nc2nc3ccc(S(N)(=O)=O)cc3s2)CC1 | Non-Toxic | Non-Toxic | Toxic | > 60% | Toxic | Non-Toxic |  |  |
| 406 nM | 261 nM | 27.5 nM | 6 nM | NS(=O)(=O)c1ccc(NC(=O)CSC(=S)N2CCCCC2)cc1 |  |  |  |  |  |  |  |  |
| 2440 nM | 276 nM | 2120 nM | 438 nM | NS(=O)(=O)c1ccc(NC(=O)CSC(=S)N2CCN(c3ccc(F)c(Cl)c3)CC2)cc1 |  |  |  |  |  |  |  |  |
| 901 nM | 564 nM | 2080 nM | 298 nM | COc1ccc(N2CCN(C(=S)SCC(=O)Nc3ccc(S(N)(=O)=O)cc3)CC2)cc1 |  |  |  |  |  |  |  |  |
| 8120 nM | 26.8 nM | 8.8 nM | 27.9 nM | NS(=O)(=O)c1ccc2nc(NC(=O)CSC(=S)N3CCOCC3)sc2c1 |  |  |  |  |  |  |  |  |
| > 10000 nM | 32.2 nM | 36.6 nM | 611 nM | COc1ccccc1N1CCN(C(=S)SCC(=O)Nc2ccc(S(N)(=O)=O)cc2)CC1 | Non-Toxic | Non-Toxic | Toxic | > 60% | Toxic | Non-Toxic | Toxic |  |
| > 10000 nM | 30.9 nM | 958 nM | 363 nM | COc1ccc(N2CCN(C(=S)SCC(=O)Nc3nc4ccc(S(N)(=O)=O)cc4s3)CC2)cc1 | Non-Toxic | Non-Toxic | Toxic | > 60% | Toxic | Non-Toxic |  |  |
